Source: ChEMBL document CHEMBL4400557, “The potential of click reactions for the synthesis of bioactive triterpenes” (Bioorg Med Chem Lett, 2019)

Assays:
[1] = Inhibition of rabbit muscle glycogen phosphorylase; set-up: species or system Oryctolagus cuniculus
CCRF-CEM = experiment: Cytotoxicity in human CCRF-CEM cells incubated for 72 hrs by SRB assay; assay type: functional, cell-based
MDA-MB-231 = experiment: Antiproliferative activity against human MDA-MB-231 cells by SRB assay; assay type: functional
HL-60 = experiment: Antiproliferative activity against human HL60 cells by MTT assay; assay type: functional, cell-based
AGS = experiment: Antiproliferative activity against human AGS cells after 3 days by MTT assay; assay type: functional, cell-based; settings: 72 h
[2] = Antiproliferative activity against human A375-S2 cells after 72 hrs by MTT assay; assay type: functional, cell-based; settings: A375-S2, 72 h
HT-1080 = experiment: Antiproliferative activity against human HT1080 cells after 72 hrs by MTT assay; assay type: functional, cell-based; settings: HT-1080, 72 h
KB = experiment: Antiproliferative activity against human KB cells; assay type: functional, cell-based
[3] = Inhibition of glycogen phosphorylase (unknown origin); set-up: species or system Homo sapiens
[4] = tested on: Human immunodeficiency virus 1; experiment: Antiviral activity against HIV-1 NL4-3; assay type: functional, organism-based; settings: Human immunodeficiency virus 1, NL4-3

## CCCCCCCCC(=O)OCc1cn(CC(=O)O[C@H]2CC[C@]3(C)[C@H]4CC=C5[C@@H]6CC(C)(C)CC[C@]6(C(=O)O)CC[C@@]5(C)[C@]4(C)CC[C@H]3C2(C)C)nn1
[1]
  IC50: 5.4 µM

## C=C(Cn1cc(-c2ccccc2C=O)nn1)[C@@H]1CC[C@]2(C(=O)O)CC[C@]3(C)[C@H](CC[C@@H]4[C@@]5(C)CC[C@H](OC(C)=O)C(C)(C)[C@@H]5CC[C@]43C)[C@@H]12
CCRF-CEM
  IC50: 3.3 µM

## C[C@H]1[C@H](C)CC[C@]2(C(=O)OCCCn3cc(COC(=O)[C@]45CC[C@@H](C)[C@H](C)[C@H]4C4=CC[C@@H]6[C@@]7(C)CC[C@H](O)C(C)(C)[C@@H]7CC[C@@]6(C)[C@]4(C)CC5)nn3)CC[C@]3(C)C(=CC[C@@H]4[C@@]5(C)CC[C@H](O)C(C)(C)[C@@H]5CC[C@]43C)[C@H]12
MDA-MB-231
  GI50: 1.4 µM

## C=C(Cn1cc(-c2ccc(F)cc2)nn1)[C@@H]1CC[C@]2(C(=O)O)CC[C@]3(C)[C@H](CC[C@@H]4[C@@]5(C)CC[C@H](O)C(C)(C)[C@@H]5CC[C@]43C)[C@@H]12
HL-60
  IC50: 1.7 µM

## CC1(C)CC[C@]2(C(=O)O)CC[C@]3(C)C(=CC[C@@H]4[C@@]5(C)CC[C@H](OC(=O)CCc6cn(Cc7ccc(Cl)cc7)nn6)C(C)(C)[C@@H]5CC[C@]43C)[C@@H]2C1
AGS
  IC50: 8.9 µM

## CC1(C)CC[C@]2(C(=O)OCc3cn(-c4ccc([N+](=O)[O-])cc4)nn3)CC[C@]3(C)C(=CC[C@@H]4[C@@]5(C)CC[C@H](O)C(C)(C)[C@@H]5CC[C@]43C)[C@@H]2C1
[2]
  IC50: 4.97 µM
HT-1080
  IC50: 3.51 µM

## C=C(C)[C@@H]1CC[C@]2(C(=O)NCc3cn(C4CC(n5cc(C)c(=O)[nH]c5=O)OC4CO)nn3)CC[C@]3(C)[C@H](CC[C@@H]4[C@@]5(C)CC[C@H](OC(=O)CC(=O)OC)C(C)(C)[C@@H]5CC[C@]43C)[C@@H]12 (stereo partly specified)
KB
  IC50: 8.1 µM

## CO[C@H]1O[C@H](Cn2cc(COC(=O)[C@]34CCC(C)(C)C[C@H]3C3=CC[C@@H]5[C@@]6(C)CC[C@H](O)C(C)(C)[C@@H]6CC[C@@]5(C)[C@]3(C)CC4)nn2)[C@@H](O)[C@H](O)[C@H]1O
[3]
  IC50: 1.4 µM

## C=C(C)[C@@H]1CC[C@]2(C(=O)O[Si](c3ccccc3)(c3ccccc3)C(C)(C)C)CC[C@]3(C)[C@H](CC[C@@H]4[C@@]5(C)CC[C@H](O)C(C)(C)[C@@H]5CC[C@]43C)[C@@H]12
[4]
  IC50: 0.19 µM

## CC1(C)CC[C@]2(C(=O)O)CC[C@]3(C)C(=CC[C@@H]4[C@@]5(C)CC[C@H](OCc6cn(CCCCCCn7cc(CO[C@H]8CC[C@]9(C)[C@H]%10CC=C%11[C@@H]%12CC(C)(C)CC[C@]%12(C(=O)O)CC[C@@]%11(C)[C@]%10(C)CC[C@H]9C8(C)C)nn7)nn6)C(C)(C)[C@@H]5CC[C@]43C)[C@@H]2C1
[3]
  IC50: 2.59 µM
